Consider 91 compounds from a melting point compilation (Tetko et al.; mined from patent text by program, amines drawn as free bases though some values may be those of a salt).

Usually melting point stands for the temperature of the solid-liquid transition.

The compound `Cc1cc(OCc2ccccc2)c(C)cc1C=O` showed a melting point of 48 to 49 °C. The value for `CCN(CC)C(=O)Oc1c(N2CCCC2)c(=O)n(-c2ccccc2)c2ncccc12` was 158 to 160 °C. The value for `Cn1c(=O)n(Cc2ccc(F)cc2)c(=O)c2cc(C(=O)c3nc(Br)c4ccccn34)ccc21` was 280 °C; that for `CCc1nc2c(N)nc3cc(OCC(=O)c4ccsc4)ccc3c2s1` was 202 to 203 °C; that for `COC(=O)c1ccnc(NC(=O)C(CSC(C)=O)Cc2ccccc2)c1` (stereo unspecified) was 137 to 139 °C. To `O=C(Cc1ccc(Br)cc1)c1ccc(Cl)cc1` belongs 123 °C; to `CC(C)(C)OC(=O)CN(Cc1ccccc1)S(=O)(=O)c1ccc2c(Cl)cnc(Cl)c2c1`, 134 to 136 °C; to `Cc1c(Cc2cccc(C(F)(F)F)c2)sc2c(-c3cc(F)cc(C(=O)O)c3)cccc12`, 168 to 169 °C.

With `CN(C)CC1CCN(c2nc(N3CCOCC3)c3ncnc(N(C)Cc4cccc5ccccc45)c3n2)CC1`, the melting point was 158 °C.

As to `CCc1c2n(c3ccccc13)C(=O)C(Cc1nc[nH]c1C)CC2` (stereo unspecified), the melting point was 222 to 224 °C. To `NC1(CF)CCCNC1=O` (stereo unspecified) belongs 132 °C; to `CSC(=N)N(C#N)C(c1ccccn1)c1ccccc1C` (stereo unspecified), 162 to 164 °C; to `CCOC(=O)Cn1c(-c2ccc(Cl)c(Cl)c2)nc2cccnc21`, 141 to 142 °C. To `Cc1[nH]c(=O)cnc1-c1ccc(NC(=O)OCc2ccccc2)cc1` belongs 232 °C; to `CCOC(=O)c1cc(C(=O)Nc2ccccc2OC(C)=O)cc(Cl)c1O`, 163 to 166 °C; to `COC(=O)C1=C(C)NC(C)=C(C(=O)OCCCOc2ccc(CCO)cc2)C1c1cccc([N+](=O)[O-])c1` (stereo unspecified), below 50 °C. To `CCCNC(=O)NC1CCCCC1` belongs 108 to 109 °C; to `CN(C(=O)OC(C)(C)C)c1cc(Sc2cc(C(C)(C)C)c(O)c(C(C)(C)C)c2)ccc1[N+](=O)[O-]`, 140 to 141 °C.

`Fc1cccc(F)c1C1=NC(c2ccc(OCc3ccc(Cl)cc3Cl)cc2)CO1` (stereo unspecified) yielded a melting point of 104 °C. In the case of `COCc1nc2c(N)nc3ccccc3c2n1CC(C)(C)OCCS(C)(=O)=O`, the melting point fell in the range of 186 to 189 °C. For `O=C(O)c1cc(=O)cc(-c2ccccc2Cl)o1`, the melting point is 241 to 246 °C. The value for `Cc1sc(-c2ccccc2)nc1COc1cc(COc2ncccc2C=O)on1` was 123 to 124 °C. To `CCCC/C(=C\C=C\C(=O)O)c1ccc(OC)cc1` belongs 138 to 140 °C.

`CCCCCCN(C)C(=O)c1cccc(CN2C(=O)C3(COc4cc5c(cc43)CCO5)c3ccccc32)c1` (stereo unspecified) yielded a melting point of 73 to 74 °C. For the compound `CC(CSC(=O)c1ccccc1)C(=O)N(CC(=O)O)C1CCC(c2ccccc2)CC1` (stereo unspecified), the melting point was in the range of 180 to 181 °C.

With `CN(C)N=Cc1cn(C)nc1-c1ccc([N+](=O)[O-])o1`, the melting point was in the range of 164 to 165 °C.

With `O=C(Cc1ccccc1)c1ccc[nH]1`, the melting point was 92 to 94 °C.

The compound `Cc1nc(N)nc(N)c1-c1cccc(Cl)c1Cl` registered a melting point of 245 to 247 °C. `N#Cc1cnc2cc(C#CCCCN3CCOCC3)ccc2c1Nc1ccc(Cl)cc1Cl` showed a melting point of 131 to 133 °C.

Consider `Cn1c2ccccc2c2sccc(=O)c21`, for which the melting point is 113 to 114 °C.

Turning to `Nc1nc(/C(=N/OCC(=O)N2CCCCCC2)C(=O)O)cs1`, the melting point was 178 to 179 °C. As to `CCC(CC)N(Cc1ccc(C(=O)OC)cc1)S(=O)(=O)c1ccc(Cl)cc1`, the melting point lay in the range of 95 to 97 °C.

For the compound `O=S(=O)(c1ccccc1)C(CCCCl)c1ccccc1` (stereo unspecified), the melting point was in the range of 110 to 112 °C. To `C[C@]12CC[C@]3(C)C(O)CC[C@H]3[C@@H]1CCC1=C2CC=C(O)C1` (stereo partly specified) belongs 86 to 90 °C; to `CCOC(=O)Oc1ccc(S(=O)(=O)N2c3cc(F)c(F)c(F)c3-n3cccc3C2CC)cc1` (stereo unspecified), 131 to 132 °C; to `COc1ccc(SCCCCNC(P(=O)(O)O)P(=O)(O)O)cc1`, 188 to 189 °C. To `O=C1NC(=O)C(c2sccc2Br)O1` (stereo unspecified) belongs 138 to 139 °C; to `O=C1CCC(c2ccc(NC3=NCCS3)cc2)=NN1`, 217 to 218 °C; to `O=C(O)c1ccnc(NC(=O)C(CS)Cc2ccccc2)c1` (stereo unspecified), 234 to 236 °C. To `COc1ccccc1Nc1ncc2cc(-c3c(Cl)cccc3Cl)c(=O)n(C)c2n1` belongs 200 to 201 °C; to `CS(=O)(=O)Nc1ccc(Cl)c([N+](=O)[O-])c1`, 163 °C. In turn, `Cn1nnnc1CC(=O)c1cc(F)c(F)cc1N` yielded a melting point of 162 to 164 °C. With `C#CCC(CC#C)NC(=O)C(F)(F)F`, the melting point lay within 55 to 57 °C.

The compound `CC1=C(C(=O)OCc2ccccc2)C(c2ccccc2Cl)c2c[nH]nc2N1` (stereo unspecified) registered a melting point of 234 °C. To `CN1C(=S)NN2CCCC21c1ccc(Cl)cc1` (stereo unspecified) belongs 159 to 161 °C.

For `CCCn1nc(-c2c(-c3ccc(F)cc3)nn3ccc(OC)cc23)ccc1=O`, the melting point was 190 to 191 °C. The value for `COC(=O)c1nc(C)c(-c2ccncc2C)s1` was 95.5 to 96.3 °C; that for `COC(=O)c1cc(-c2nc(CCl)c(C)o2)ccc1OS(C)(=O)=O` was 160 to 161 °C. To `COc1nsc(NC(=O)CBr)n1` belongs 198 to 199 °C; to `CC(C)c1nc2c(c(-c3ccc(F)cc3)c1CO)CCCC2(C)C`, 146 to 149 °C; to `COc1ccc(-c2cc(-c3nccs3)c(=O)n(C)c2-c2ccc(C)o2)cc1`, 205 to 206 °C. The value for `N=C(O)c1cc(C(O)=NCCS)c(C(=O)O)cc1C(=O)O` was 300 °C. Turning to `COc1cc(OC)nc(Oc2cccc3c2C(=O)OC3OCC#N)n1` (stereo unspecified), the melting point was in the range of 99 to 102 °C.

In turn, `OCc1cccn1CCN1CCC(=C2c3ccccc3CCn3ccnc32)CC1` displayed a melting point of 147 °C. The value for `COc1ccc2c(-c3ccccc3)c([N+](=O)[O-])oc2c1` was 100 to 106 °C. The value for `O=C(NCc1cccnc1)c1ccc2n1Cc1ccccc1N(C(=O)c1ccc(-c3ccccc3CN3CCCCC3)cc1)C2` was 199 to 202 °C; that for `Cn1ccc(=O)c(OCc2ccccc2)c1C(O)c1cccnc1` (stereo unspecified) was 169 to 174 °C.

`CCCCN1C(=O)CN(c2ccccc2)C1=O` came in with a melting point of 74 °C. In turn, `COCn1nc(N)c2cc(S(=O)(=O)C(C)C)cc(OCCc3ccccn3)c21` showed a melting point of 140 to 142 °C. The compound `O=c1cc(CO)n2c(n1)COc1ccccc1-2` registered a melting point of 235 to 237 °C. As to `C=CCOc1cc(C)c2c(C)cc(=O)oc2c1`, the melting point amounted to 178 °C. To `N#Cc1c(N2CCCCC2)cc(-c2ccc3ccc4cccc5ccc2c3c45)c2c1Cc1ccccc1-2` belongs 168 to 169 °C; to `CCOC(=O)c1cn(-c2nc(C)ns2)c2cc(F)c(F)cc2c1=O`, 157 to 159 °C. The value for `CCCCCn1cc(C(=O)O)c(=O)cc1C` was 126 °C; that for `COC(=O)C1CC2c3cccc4c3C(CN4)CC2N(C)C1` (stereo unspecified) was 110 to 120 °C; that for `COc1cc(C)c2c(Cl)c(OC)ccc2n1` was 97 to 100 °C. The value for `CCCCCCCCCCCCCCOCC(O)CO` (stereo unspecified) was 56 to 57 °C; that for `S=c1nc2ccc(Cl)cn2c(=S)n1-c1ccc(Cl)cn1` was 131 to 132 °C; that for `COc1ccc(C(C)C)cc1-c1cc(C(=O)NCCc2ccccc2)c(OCc2ccccc2)cc1OCc1ccccc1` was 138 to 140 °C. The compound `Cc1nccc(C(N)=O)c1[N+](=O)[O-]` showed a melting point of 203 to 204 °C. `CCOC(=O)C(C)=CC=CC(C)=CC=CC=C(C)C=O`: the melting point fell in the range of 120 to 121 °C. For `O=C1c2ccccc2CCn2cccc21`, the melting point was 54 to 55 °C.

With `O=C(c1cc(-c2ccncc2)c(N2CCOCC2)s1)c1ccc(Cl)cc1Cl`, the melting point was 180 °C.

With `CNC(=C[N+](=O)[O-])NCCSCc1nccc(NC(N)=NCC(F)(F)F)n1`, the melting point is 154 to 157 °C. The value for `CC(CC=Cc1ccccc1)C1CC=C2C3=C(CCC21C)C1(C)CCC(O)C(C)(C)C1CC3` (stereo unspecified) was 127 °C.

In the case of `Cc1nc(N2CCOCC2)c2n1-c1ccc(Cl)cc1C(c1ccccc1F)=NC2`, the melting point was in the range of 172 to 174 °C. With `CCOCN1C(C)=C(C(C)=O)C(c2cccc([N+](=O)[O-])c2)C(C(=O)OCC)=C1C` (stereo unspecified), the melting point was 110 to 111 °C. The value for `CC1(C)OCC(N2CCC(Cc3ccccc3)CC2)O1` (stereo unspecified) was 92 to 94 °C; that for `O=C(O)Cc1cc(Cl)ccc1OCc1ccccc1` was 76 to 77.5 °C; that for `N#Cc1ccc(-c2cc(-c3ccc(C#N)cc3Cl)on2)cc1` was 260 to 262 °C. The value for `CCCC(NC(=O)Cc1ccc(C(=O)O)c(OCC)c1)c1ccccc1N1CCCCC1` (stereo unspecified) was 87 to 89 °C; that for `CCn1cc(C(=O)O)c(=O)c2cc(F)c(N3CCN(Cc4ccc(N)cc4)CC3)c(F)c21` was 220 to 221 °C; that for `CCc1ccc(S(=O)(=O)c2c(N)c3nncn3c3nc4ccccc4nc23)cc1` was above 300 °C. The value for `CC(O)c1cc2c3ccccc3n(C)c(=O)n2n1` (stereo unspecified) was 169 to 172 °C; that for `COc1cc(C)c(C(=O)c2ccc(OCc3nc(-c4ccccc4)oc3C)cc2)c(O)c1` was 171 to 172 °C.

In turn, `COC(C)(CC(=O)Nc1cccc(OC(=O)NC(C)C)c1)OC` gave a melting point of 160 °C. The value for `CCn1c(=O)c(C(=O)NCCOC)c(O)c2ccc(C)nc21` was 118 to 120 °C; that for `O=c1cc[nH]c2c([N+](=O)[O-])cc(C(F)(F)F)cc12` was 153 to 156 °C. `O=S(=O)(CCOc1ccc(Cl)cc1)c1ccc(Cl)cc1` came in with a melting point of 108 °C. As to `O=C(O)c1ccc2c(c1)COCC2`, the melting point fell in the range of 140 to 142 °C.

For the compound `O=C(O)Cc1cccc2c(=O)cc(-c3cc(F)ccc3F)oc12`, the melting point fell in the range of 222 to 224 °C.
